What was measured:
Plutella xylostella = experiment: B10c: Insecticide Test for Plutella xylostella (diamond back moth); type: in vivo; conditions: sprayed Chinese cabbage leaf disks, L3 larvae
Method: Chinese cabbage plants were sprayed with insecticide at 3, 0.8, 0.2 and 0.05 ppm. Five cm diameter leaf disks were cut and placed in a Petri dish containing 6 ml agar (0.8%). Five P. xylostella larvae L3 were introduced into Petri dishes and kept at 26±2° C., 50±10% r.h. in a dark room (two replicates per treatment). […]

Heliothis virescens = experiment: B10b: Insecticide Test for Heliothis virescens (tobacco budworm); type: in vivo; conditions: for Percent larvae showing growth reduction (compared to control): eggs on artificial diet topically treated, one week; for mortality at 0.05 ppm / mortality at 0.2 ppm / mortality at 0.8 ppm / mortality at 3 ppm: Heliothis virescens, topical, 168 h, read-out: Percent larvae mortality
Method: 50-60 newly laid H. virescens eggs were placed on artificial diet in Petri dishes (5 cm diameter) and topically treated with 0.8 ml solution of compounds at the following rates: 3, 0.8, 0.2, 0.05. Petri dishes are maintained at 26±2° C., 50±10% r.h. in a dark room and assessment conducted one week after application (two replicates/treatment). Larvae mortality and effects on larvae growth were compared to the control.

Spodoptera littoralis = experiment: B10a: Systemic Insecticide Test for Spodoptera littoralis (cotton leafworm); type: in vivo; conditions: systemic via maize seedlings, 1st instar larvae
Method: […] Seedlings are allowed to grow for six days. Subsequently leaves are cut and placed in a Petri dish (5 cm diameter), inoculated with twelve to fifteen 1st instar S. littoralis larvae and incubated for four days in a growth chamber (25° C., 50% r.h., 18:6 L:D photo period). Number of alive insects are counted and percentage of dead calculated. Tests were conducted with one replicate.

Diabrotica balteata = experiment: Example B2: activity against Diabrotica balteata, sprayed maize seedlings; conditions: in Zea mays, 144 h, read-out: percentage reduction in the population (% activity)

`Cc1cccc(C(=O)NCC2CC2)c1NC(=O)c1cc(C(F)(F)F)nn1-c1ncccc1Cl` [Compound P41] was tested, and the “Death rate (%)” value (Plutella xylostella; 0.05 ppm) was 0%, the “Death rate (%)” value (Plutella xylostella; 0.2 ppm) was 0% and the “Death rate (%)” value (Plutella xylostella; 0.8 ppm) was 80%. The “Death rate (%)” value (Plutella xylostella; 3 ppm) was 60%, the “Percent larvae showing growth reduction (compared to control)” value (from here on “Percent larvae showing growth reduction”) (Heliothis virescens; 0.05 ppm) was 0% and the “Percent larvae showing growth reduction” value (Heliothis virescens; 0.2 ppm) was 45%. The “Percent larvae showing growth reduction” value (Heliothis virescens; 0.8 ppm) was 100%, the “Percent larvae showing growth reduction” value (Heliothis virescens; 3 ppm) was 100% and the mortality at 0.05 ppm (Heliothis virescens) was 0%. It also gave a mortality at 0.2 ppm (Heliothis virescens) of 0%, a mortality at 0.8 ppm (Heliothis virescens) of 0% and a mortality at 3 ppm (Heliothis virescens) of 0%. The “Death rate (%) after 4 days” value (Spodoptera littoralis; 0.2 ppm) was 20%, the “Death rate (%) after 4 days” value (Spodoptera littoralis; 0.8 ppm) was 80% and the “Death rate (%) after 4 days” value (Spodoptera littoralis; 3 ppm) was 100%.
With `Cc1cccc(C(=O)NCC2CO2)c1NC(=O)c1cc(C(F)(F)F)nn1-c1ncccc1Cl` (stereo not shown) [Comp. 566, reference compound] the “Death rate (%)” value (Plutella xylostella; 0.05 ppm) was 0%, the “Death rate (%)” value (Plutella xylostella; 0.2 ppm) was 10% and the “Death rate (%)” value (Plutella xylostella; 0.8 ppm) was 5%. The “Death rate (%)” value (Plutella xylostella; 3 ppm) was 25%, the “Percent larvae showing growth reduction” value (Heliothis virescens; 0.05 ppm) was 0% and the “Percent larvae showing growth reduction” value (Heliothis virescens; 0.2 ppm) was 0%. For the same molecule, the “Percent larvae showing growth reduction” value (Heliothis virescens; 0.8 ppm) was 0%, the “Percent larvae showing growth reduction” value (Heliothis virescens; 3 ppm) was 0% and the mortality at 0.05 ppm (Heliothis virescens) was 0%. The mortality at 0.2 ppm (Heliothis virescens) was 0%, the mortality at 0.8 ppm (Heliothis virescens) was 0% and the mortality at 3 ppm (Heliothis virescens) was 0%. For the same molecule, the “Death rate (%) after 4 days” value (Spodoptera littoralis; 0.2 ppm) was 0%, the “Death rate (%) after 4 days” value (Spodoptera littoralis; 0.8 ppm) was 0% and the “Death rate (%) after 4 days” value (Spodoptera littoralis; 3 ppm) was 0%.
For `Cc1cc(Cl)cc(C(=O)NCC2CCO2)c1NC(=O)c1cc(C(F)(F)F)nn1-c1ncccc1Cl` (stereo not shown) [Compound P25, N-(4-chloro-2-methyl-6-[([oxetan-2-ylmethyl]amino)carbonyl]phenyl)-1-(3-chloro-2-pyridinyl)-3-(trifluoromethyl)-1H-pyrazole-5-carboxamide], the inhibition at 400 ppm (Diabrotica balteata) was greater than 80%.

From patent US8106075B2, “Insecticides” (Syngenta Crop Protection, Inc., priority 2004, dated 2012)
